The values below come from patent US8575127B2, “Antithrombotic diadenosine tetraphosphates and related analogs” (GLSynthesis Inc., priority 2008, dated 2013).

For orientation: IC50 means the point on the concentration scale where inhibition reaches its midpoint. The low end stands for higher potency, the high end for lower potency.

This assay deals with ADP-induced human platelet aggregation. Kind of assay: ADP-induced platelet aggregation in platelet-rich human plasma (optical aggregometry). Type of assay: cell-based. Particulars: inhibition of 3 μM ADP-induced human platelet aggregation, average of 2 experiments. On the procedure: Platelet aggregation was initiated by adding ADP (3 μM) in the presence or absence of various concentrations of test compound to platelet-rich human plasma, and the aggregation response was recorded for six minutes in a Chrono-log® aggregometer running the Aggro/Link software (Chrono-log®, Havertown, Pa.).

In turn, `CNc1ncnc2c1ncn2[C@@H]1O[C@H](COP(O)(=S)OP(=O)(O)C(Cl)P(=O)(O)OP(O)(=S)OC[C@H]2O[C@@H](n3cnc4c(NC)ncnc43)[C@H](O)[C@@H]2O)[C@@H](O)[C@H]1O` (stereo partly shown) [Compound 8, P^1,P^4-bis(N^6-methyl-5′-adenosine)-P^1,P^4-dithio-P^2,P^3-monochloromethylenetetraphosphate] registered an IC50 of 3520 ± 830 nM.
As for “Bis-adenosine tetraphosphate [Ap4A, reference compound]”, the figure is 9800 ± 2800 nM; as for `CSc1nc(N)c2ncn(C3OC(COP(=O)(O)OP(=O)(O)OP(=O)(O)OP(=O)(O)OCC4OC(n5cnc6c(N)nc(SC)nc65)C(O)C4O)C(O)C3O)c2n1` (stereo not shown) [Compound 2, tetrasodium P^1,P^4-bis-(2-methylthio-5′-adenosine)tetraphosphate], 89 ± 38 nM.
Consider `CSc1nc(N)c2ncn(C3OC(COP(O)(=S)OP(=O)(O)OP(=O)(O)OP(O)(=S)OCC4OC(n5cnc6c(N)nc(SC)nc65)C(O)C4O)C(O)C3O)c2n1` (stereo not shown) [Compound 10, P^1,P^4-bis-(2-methylthio-5′-adenosine)-P^1,P^4-dithiotetraphosphate], for which the IC50 amounted to 50 ± 37 nM.
`CNc1nc(SC)nc2c1ncn2C1OC(COP(O)(=S)OP(=O)(O)C(Cl)P(=O)(O)OP(O)(=S)OCC2OC(n3cnc4c(NC)nc(SC)nc43)C(O)C2O)C(O)C1O` (stereo not shown) [Compound 22, P^1,P^4-bis(N^6-methyl-2-methylthio-5′-adenosine)-P^1,P^4-dithio-P^2,P^3-monochloromethylenetetraphosphate] showed an IC50 of 260 nM.
As for `Nc1nc(I)nc2c1ncn2[C@@H]1O[C@H](COP(O)(=S)OP(=O)(O)C(Cl)P(=O)(O)OP(O)(=S)OC[C@H]2O[C@@H](n3cnc4c(N)nc(I)nc43)[C@H](O)[C@@H]2O)[C@@H](O)[C@H]1O` (stereo partly shown) [Compound 40, P^1,P^1-bis-(2-iodo-5′-adenosine)-P^1,P^4-dithio-P^2, P^3-monochloromethylenetetraphosphate], the figure is 21 ± 6 nM; as for `CSc1nc(N)c2ncn(C3OC(COP(O)(=S)OP(=O)(O)C(Cl)P(=O)(O)OP(O)(=S)OCC4OC(n5cnc6c(N)nc(SC)nc65)C(O)C4O)C(O)C3O)c2n1` (stereo not shown) [Compound 17, P^1,P^4-bis-(2-methylthio-5′-adenosine)-P^1,P^4-dithio-P^2, P^3-monochloromethylenetetraphosphate], 13 ± 10 nM.
`CCCSc1nc(N)c2ncn([C@@H]3O[C@H](COP(O)(=S)OP(=O)(O)C(Cl)P(=O)(O)OP(O)(=S)OC[C@H]4O[C@@H](n5cnc6c(N)nc(SCCC)nc65)[C@H](O)[C@@H]4O)[C@@H](O)[C@H]3O)c2n1` (stereo partly shown) [Compound 32, P^1,P^4-bis(2-propylthio-5′-adenosine)-P^1,P^4-dithio-P^2,P^3-monochloromethylenetetraphosphate] yielded an IC50 of 15 ± 10 nM.
With `CCCNc1ncnc2c1ncn2C1OC(COP(O)(=S)OP(=O)(O)C(Cl)P(=O)(O)OP(O)(=S)OCC2OC(n3cnc4c(NCCC)ncnc43)C(O)C2O)C(O)C1O` (stereo not shown) [Compound 12, P^1,P^4-bis-(N^6-propyl-5′-adenosine)-P^1,P^4-dithio-P^2,P^3-monochloromethylenetetraphosphate], the IC50 was found to be 5560 ± 1700 nM.
`Nc1nc(Cl)nc2c1ncn2C1OC(COP(O)(=S)OP(=O)(O)C(Cl)P(=O)(O)OP(O)(=S)OCC2OC(n3cnc4c(N)nc(Cl)nc43)C(O)C2O)C(O)C1O` (stereo not shown) [Compound 44, P^1,P^4-bis(2-chloro-5′-adenosine)-P^1,P^4-dithio-P^2,P^3-monochloromethylenetetraphosphate] came in with an IC50 of 98 ± 4 nM.
